Values quoted from earlier work in US20080254073A1, “Transdermal Patch Comprising Paroxetine” (IKSU PARMACEUTICAL CO., LTD., priority 2005, published 2008).

Tests used:
[1] = not given; remark: listed apart in the source

- partition coefficient of the drug using octanol-water: 169.20±17.19
- log P (octanol-water): 2.23
- elimination half-life ([1]; after multiple oral administration, healthy volunteers): about 24 hours
- time to reach maximum plasma concentration of the drug ([1]; oral administration, healthy volunteers): about five
- influence of food or antacid on absorption ([1]; oral, administered together with food or antacid): not influenced by food or antacid
- difference in the area under the plasma concentration-time curve (AUC) ([1]; oral, differences among individuals): about 35 times
SMILES: Fc1ccc([C@@H]2CCNC[C@H]2COc2ccc3c(c2)OCO3)cc1 [Paroxetine]
